Where two headings read alike, the source gives them in different places.
Legend:
[1] = in vivo; settings: mouse, mice, highest dose tested, read-out: maximum tolerated dose
[2] = tested on: A375 melanoma; test: Cancer cell proliferation, A375; format: cell-based; settings: Homo sapiens
Method: (§1) To determine the breadth of efficacy in cancers, we examined the efficacy of a range of TRPM7 inhibitors for their ability to inhibit cell proliferation in cancer cell lines. Representative figures are included as examples.
(§2) Cells (Table 1) were grown to 70% confluency, trypsinized, counted, and seeded in 96-well flat-bottom plates at a final concentration of 2.5×10^3-5.0×10^3 cells/well in growth media containing 5% FBS (Day 0). Other well sizes and cell densities were used successfully as well. Cells were allowed to incubate in growth media for 24 hours to allow for maximum adhesion. Treatment with the test agent began on Day 1 and continued for 72 hours either with or without retreatment. At the 72 hour time point, viable cell numbers are quantified by the CellTiter-Glo® cell viability assay as described above, or using standard MTT, SRB or BrDU assays. Experiments were repeated at least twice with the same concentrations to determine growth inhibitory activity.
(§3) Data Collection—For the cell proliferation studies, data from each experiment was collected and expressed as % Cell Growth using the following calculation: % Cell Growth=(ftest/fvehicle)×100 Where ftest is the luminescent signal of the tested sample, and fvehicle is the luminescence of the vehicle in which the drug is dissolved (or appropriate measure for the other viability/proliferation measures). Dose response graphs and IC50 values were generated using standard software using the following variable slope equation: […]

[3] = tested on: SW13 adrenal carcinoma cells; test: Cancer cell proliferation, SW13; format: cell-based; settings: SW13, FIG. 79
Method: as §1, §2
as §3, with “measures).” for “measures). Dose response graphs and IC50 values were generated using standard software using the following variable slope equation:”

[4] = tested on: Y79 retinoblastoma cells; test: Y79 retinoblastoma cells seeded on cultured retinal explants (ex vivo); format: cell-based
Method: Retinal explants were surgically dissected and cultured by standard methods. One hundred thousand Y79 retinoblastoma cells were then seeded onto the retinas in culture and allowed to grow for 2 weeks on inserts in the presence or absence of 5 μM M6. Y79 cells were fluorescently labeled and intensity was counted (arbitrary fluorescence units). […] TRPM7 inhibitors may be useful in the reduction of tumor metastasis in addition to either reducing the proliferation or killing of cancer cells. FIG. 78 is a repetition of the experiment, observing the distribution of Y79 cells after 12 days of migration off the retina. The darker bars of each pair indicate fluorescence intensity of cells that have migrated off the retina.

[5] = tested on: HCT-116 colon cancer; test: Cancer cell proliferation, HCT-116; format: cell-based; settings: for IC50: Homo sapiens
Method: as §1, §2, §3

[6] = tested on: DMS456 lung cancer; test: Cancer cell proliferation, DMS456; format: cell-based; settings: >20% inhibition at 48-96 hours, MTT, SRB, luminescence or BrDU
Method: as §1, §2
as §3, with “measures).” for “measures). Dose response graphs and IC50 values were generated using standard software using the following variable slope equation:”

[7] = tested on: H9c2 cardiomyocytes; test: Toxicity on H9c2 cardiomyocytes, PI uptake after 72 hours; format: cell-based, rat
Method: To differentiate between an anti-proliferative effect of the TRPM7 inhibitors and cellular toxicity, the compounds were added to various ‘non-cancerous’ cell lines at the same concentrations and the percentage of PI uptake was measured after 72 hours.

[8] = tested on: LAD coronary artery ligation; test: Mouse model of permanent LAD coronary artery ligation (myocardial infarction); format: in vivo; settings: single intravenous dose within 15 minutes of LAD occlusion
[9] = target: T1, TRPC2 (Mus musculus, UniProt Q9R244); test: Agonist-induced Ca2+ changes in HEK293 cells transfected with TRPC2; format: cell-based
T1 construct: expressed in transfected cells; host or cells: HEK293
T1 sequence (Q9R244 whole entry, species assumed): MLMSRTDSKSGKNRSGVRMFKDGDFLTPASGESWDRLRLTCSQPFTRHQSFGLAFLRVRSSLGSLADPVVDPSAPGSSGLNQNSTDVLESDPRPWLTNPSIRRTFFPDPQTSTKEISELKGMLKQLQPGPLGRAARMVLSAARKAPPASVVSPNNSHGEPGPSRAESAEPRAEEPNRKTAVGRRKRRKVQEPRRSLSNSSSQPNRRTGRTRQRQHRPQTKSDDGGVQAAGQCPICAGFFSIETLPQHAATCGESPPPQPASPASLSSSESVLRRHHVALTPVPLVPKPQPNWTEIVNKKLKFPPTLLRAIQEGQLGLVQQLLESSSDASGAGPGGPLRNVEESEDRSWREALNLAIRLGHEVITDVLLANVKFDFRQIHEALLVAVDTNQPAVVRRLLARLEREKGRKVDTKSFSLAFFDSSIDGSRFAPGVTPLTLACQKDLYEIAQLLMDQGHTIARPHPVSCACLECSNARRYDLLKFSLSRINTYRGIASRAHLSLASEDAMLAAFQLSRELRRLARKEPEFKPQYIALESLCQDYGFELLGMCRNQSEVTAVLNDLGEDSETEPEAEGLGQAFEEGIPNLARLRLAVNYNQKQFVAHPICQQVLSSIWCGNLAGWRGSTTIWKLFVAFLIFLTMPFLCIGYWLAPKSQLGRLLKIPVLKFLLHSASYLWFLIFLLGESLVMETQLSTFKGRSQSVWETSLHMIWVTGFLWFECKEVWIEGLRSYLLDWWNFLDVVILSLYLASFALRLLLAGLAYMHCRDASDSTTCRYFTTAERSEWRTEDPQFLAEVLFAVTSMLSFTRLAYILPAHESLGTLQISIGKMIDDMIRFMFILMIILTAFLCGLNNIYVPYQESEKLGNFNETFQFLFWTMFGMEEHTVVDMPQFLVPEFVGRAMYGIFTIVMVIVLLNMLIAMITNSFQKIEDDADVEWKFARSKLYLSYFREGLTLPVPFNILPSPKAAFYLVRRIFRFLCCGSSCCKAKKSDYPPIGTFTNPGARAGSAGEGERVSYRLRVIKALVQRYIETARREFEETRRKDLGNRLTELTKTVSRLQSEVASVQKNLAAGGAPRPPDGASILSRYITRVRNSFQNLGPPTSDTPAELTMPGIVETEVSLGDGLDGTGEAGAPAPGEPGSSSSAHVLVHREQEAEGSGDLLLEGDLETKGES
Method: (§4) To examine selectivity of a subset of these TRPM7 inhibitors, experiments were performed to determine whether TRPM7 antagonists cross-react with other ionic channels and receptors. […] From a therapeutic perspective, knowledge of cross-reactivity of candidate drugs could shed light on other ischemic mechanisms and raise awareness of potential side effects. M21 has no effect on voltage-sensitive Na+, and Ca2+ currents in cultured cortical neurons […] TRPM7-expressing HEK293 cells, but inhibits K+ currents by about 20% at membrane potentials of −10 mV. M21 had no effect on agonist-induced Ca2+ changes in HEK293 cells transfected with constructs for TRPM2, TRPM4, TRPM6, TRPV1, TRPC2 and TRPA1. M21 also has no effect on NMDA and AMPA receptor currents in cultured neurons. […] Similar experiments were performed with other TRPM7 inhibitors including M5 and M11.

[10] = target: T2, TRPM2 (Homo sapiens, UniProt O94759); test: Agonist-induced Ca2+ changes in HEK293 cells transfected with TRPM2; format: cell-based
T2 construct: expressed in transfected cells; host or cells: HEK293
T2 sequence (O94759 whole entry): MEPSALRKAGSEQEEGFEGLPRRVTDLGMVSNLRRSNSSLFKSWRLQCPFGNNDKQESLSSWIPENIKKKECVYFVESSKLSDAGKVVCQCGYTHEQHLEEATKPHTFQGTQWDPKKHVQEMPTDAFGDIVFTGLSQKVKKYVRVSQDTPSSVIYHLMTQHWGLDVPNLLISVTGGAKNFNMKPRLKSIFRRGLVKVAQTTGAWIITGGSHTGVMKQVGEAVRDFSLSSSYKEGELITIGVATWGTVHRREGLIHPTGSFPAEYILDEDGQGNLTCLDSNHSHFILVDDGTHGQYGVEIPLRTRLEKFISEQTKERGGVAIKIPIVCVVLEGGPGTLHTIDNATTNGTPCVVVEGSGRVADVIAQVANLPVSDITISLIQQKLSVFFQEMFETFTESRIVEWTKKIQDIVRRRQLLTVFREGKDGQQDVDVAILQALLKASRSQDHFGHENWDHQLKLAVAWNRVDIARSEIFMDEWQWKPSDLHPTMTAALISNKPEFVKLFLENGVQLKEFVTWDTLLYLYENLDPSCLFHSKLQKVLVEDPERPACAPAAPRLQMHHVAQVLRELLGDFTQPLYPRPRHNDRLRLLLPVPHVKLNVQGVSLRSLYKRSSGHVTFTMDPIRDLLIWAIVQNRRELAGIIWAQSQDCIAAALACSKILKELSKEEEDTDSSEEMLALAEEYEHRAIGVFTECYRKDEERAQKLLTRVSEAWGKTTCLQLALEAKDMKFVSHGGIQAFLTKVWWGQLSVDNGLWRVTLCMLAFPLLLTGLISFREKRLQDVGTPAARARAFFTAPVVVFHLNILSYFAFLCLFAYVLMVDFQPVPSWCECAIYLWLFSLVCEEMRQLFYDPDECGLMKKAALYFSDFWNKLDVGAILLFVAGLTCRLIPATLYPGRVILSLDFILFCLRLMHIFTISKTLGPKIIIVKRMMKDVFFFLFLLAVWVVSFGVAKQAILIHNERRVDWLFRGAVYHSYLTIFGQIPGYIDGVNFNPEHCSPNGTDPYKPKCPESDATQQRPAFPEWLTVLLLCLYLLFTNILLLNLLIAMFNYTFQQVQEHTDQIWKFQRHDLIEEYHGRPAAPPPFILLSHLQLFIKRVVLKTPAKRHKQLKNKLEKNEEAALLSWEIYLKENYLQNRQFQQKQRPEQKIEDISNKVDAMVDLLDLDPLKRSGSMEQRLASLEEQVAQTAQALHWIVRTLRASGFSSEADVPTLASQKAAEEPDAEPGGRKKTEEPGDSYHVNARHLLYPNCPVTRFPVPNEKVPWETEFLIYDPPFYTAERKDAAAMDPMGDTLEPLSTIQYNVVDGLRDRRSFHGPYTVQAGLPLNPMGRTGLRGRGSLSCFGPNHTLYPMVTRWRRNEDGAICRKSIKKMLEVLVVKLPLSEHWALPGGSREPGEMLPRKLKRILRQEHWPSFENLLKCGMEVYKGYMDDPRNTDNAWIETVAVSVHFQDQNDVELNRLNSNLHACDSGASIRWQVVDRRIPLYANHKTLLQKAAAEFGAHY
Method: as §4

[11] = tested on: AML12 hepatocytes; test: Anoxia (OGD) in AML12 hepatocyte cultures; format: cell-based, mouse; settings: 2 hour, 4 hour or 6 hour anoxia
Method: The ability of TRPM7 inhibitors to protect other types of cell cultures following exposure to anoxia, including non-neuronal cell cultures, has also been tested. In general, cultures of growing cells are exposed to a 1-6 hour period of anoxia, followed by addition of a TRPM7 at a range of concentrations upon removal from anoxic conditions. […] This implies that TRPM7 inhibitors may be useful both as a treatment for anoxic damage to patients presenting symptoms of a disorder associated with anoxic damage, or as a preventative measure. Such preventative measures can be chronic, such as treatment to protect against damage from heart attacks or strokes, or acute, to be given prior to or during surgical procedures, which may include but not be limited to procedures that involve endovascular invasion and have the possibility of dislodging material that may block blood flow through arteries. […]

[12] = target: T3, TRPM4 (Homo sapiens, UniProt Q8TD43); test: Agonist-induced Ca2+ changes in HEK293 cells transfected with TRPM4; format: cell-based
T3 construct: expressed in transfected cells; host or cells: HEK293
Method: as §4

[13] = tested on: formalin-induced pain behaviors; test: Formalin induced inflammatory pain in rats; format: in vivo, rat; settings: i.v. administration, formalin 2.5% 50 μL plantar hindpaw
[14] = target: TRPM7 (Mus musculus, UniProt Q923J1); test: IC50 for TRPM7 (assay not stated); parameters: expressed in transfected cells; host or cells: HEK293 cells, tet-induced TRPM7
TRPM7, sequence (Q923J1 whole entry): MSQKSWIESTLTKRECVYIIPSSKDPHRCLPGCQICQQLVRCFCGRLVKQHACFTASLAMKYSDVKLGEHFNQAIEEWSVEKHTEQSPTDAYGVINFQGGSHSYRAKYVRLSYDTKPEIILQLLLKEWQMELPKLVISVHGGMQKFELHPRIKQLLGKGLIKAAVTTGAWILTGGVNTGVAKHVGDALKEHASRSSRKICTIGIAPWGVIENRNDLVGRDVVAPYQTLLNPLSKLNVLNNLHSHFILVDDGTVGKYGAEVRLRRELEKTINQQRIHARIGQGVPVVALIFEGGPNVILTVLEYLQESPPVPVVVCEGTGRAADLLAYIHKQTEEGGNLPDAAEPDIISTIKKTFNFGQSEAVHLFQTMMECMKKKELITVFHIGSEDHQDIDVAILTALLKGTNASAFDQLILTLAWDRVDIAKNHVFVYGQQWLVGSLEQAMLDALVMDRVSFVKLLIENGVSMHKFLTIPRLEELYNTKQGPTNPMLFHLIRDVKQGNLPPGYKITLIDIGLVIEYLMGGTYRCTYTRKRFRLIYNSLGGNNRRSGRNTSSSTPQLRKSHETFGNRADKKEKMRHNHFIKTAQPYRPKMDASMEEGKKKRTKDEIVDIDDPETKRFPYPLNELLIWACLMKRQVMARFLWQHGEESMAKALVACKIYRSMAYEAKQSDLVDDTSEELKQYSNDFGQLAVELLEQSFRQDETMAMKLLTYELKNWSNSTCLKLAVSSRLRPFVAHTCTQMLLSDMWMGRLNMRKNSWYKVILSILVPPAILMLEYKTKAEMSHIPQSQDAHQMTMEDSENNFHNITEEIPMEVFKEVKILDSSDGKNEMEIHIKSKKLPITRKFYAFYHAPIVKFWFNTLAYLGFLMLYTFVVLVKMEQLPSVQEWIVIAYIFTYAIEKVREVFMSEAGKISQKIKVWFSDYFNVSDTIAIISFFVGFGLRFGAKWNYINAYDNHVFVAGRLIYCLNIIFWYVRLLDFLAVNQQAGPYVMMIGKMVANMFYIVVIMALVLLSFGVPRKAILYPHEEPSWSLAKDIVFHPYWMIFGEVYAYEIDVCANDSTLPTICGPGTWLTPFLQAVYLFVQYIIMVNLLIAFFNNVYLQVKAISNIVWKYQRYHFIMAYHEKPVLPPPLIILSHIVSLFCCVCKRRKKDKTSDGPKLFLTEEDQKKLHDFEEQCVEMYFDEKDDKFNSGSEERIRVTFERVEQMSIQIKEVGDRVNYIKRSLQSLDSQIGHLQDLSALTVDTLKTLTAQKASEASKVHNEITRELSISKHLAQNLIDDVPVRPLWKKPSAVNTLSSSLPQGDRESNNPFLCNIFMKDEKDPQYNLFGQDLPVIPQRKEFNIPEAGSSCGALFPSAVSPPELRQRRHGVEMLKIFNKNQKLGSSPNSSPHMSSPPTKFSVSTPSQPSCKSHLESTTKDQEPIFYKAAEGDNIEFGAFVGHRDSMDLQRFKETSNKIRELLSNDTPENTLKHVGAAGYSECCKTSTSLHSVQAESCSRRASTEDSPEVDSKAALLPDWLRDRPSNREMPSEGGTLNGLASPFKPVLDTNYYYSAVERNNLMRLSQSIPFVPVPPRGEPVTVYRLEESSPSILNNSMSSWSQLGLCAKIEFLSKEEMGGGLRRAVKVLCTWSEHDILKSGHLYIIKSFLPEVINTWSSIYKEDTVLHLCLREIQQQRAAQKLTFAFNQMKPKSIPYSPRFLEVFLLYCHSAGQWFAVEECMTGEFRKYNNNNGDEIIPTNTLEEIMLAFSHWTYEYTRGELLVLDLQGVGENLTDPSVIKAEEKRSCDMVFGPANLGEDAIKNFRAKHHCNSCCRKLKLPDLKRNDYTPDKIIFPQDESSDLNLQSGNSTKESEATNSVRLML

Q: What does the source list for `COc1cc2c(cc1OC)C(c1sc3ccccc3c1Cl)=NCC2` [Compound M6]?
A: MTD [1]: ≥ 20 mg/kg; IC50 ([2]; A-375, 72 h, A375, Exp 1, 72 hours, read-out: IC50): 12.6 µM; IC50 ([2]; A-375, 72 h, A375, Exp 2, 72 hours, read-out: IC50): 14.2 µM; IC50 ([2]; A-375, A375, mean of Exp 1 and Exp 2, read-out: Mean IC50): 13.4 µM; proliferation (BrDU incorporation) [3]: significantly reduce proliferation; fluorescence of cells migrated off the retinal explant ([4]; 1 μM, 12 days, FIG. 78): significantly lower Y79 fluorescence off of the retinal explant; amount of Y79 cells on cultured retinas (fluorescence) ([4]; 5 μM, 2 weeks): reduce the amount of Y79 cells; ability of Y79 cells to migrate off of the retina ([4]; 5 μM, 2 weeks, FIG. 77 panel B): significantly reduced the ability of Y79 cells to migrate off of the retina; Demonstrated Reduction of Proliferation at or below 10 μM Inhibitor concentration ([5]; HCT-116, >20% inhibition at 48-96 hours, MTT, SRB, luminescence or BrDU): HCT-116; IC50 ([5]; HCT-116, 72 h, HCT-116, Exp 1, 72 hours, read-out: IC50): 14.7 µM; IC50 ([5]; HCT-116, 72 h, HCT-116, Exp 2, 72 hours, read-out: IC50): 17.2 µM; IC50 ([5]; HCT-116, HCT-116, mean of Exp 1 and Exp 2, read-out: Mean IC50): 16 µM; Demonstrated Reduction of Proliferation at or below 10 μM Inhibitor concentration [6]: DMS456 lung cancer

Q: For `O=C(Nc1ccc(F)cc1)C(Sc1ccc(Cl)cc1)c1ccccc1` (stereo not drawn) [Compound M11], which “toxicity (PI uptake)” value ([7]; 5 μM) is on record?
A: No toxicity

Q: And the “toxicity (PI uptake)” value ([7]; 10 μM)?
A: slight toxicity

Q: For `Cc1c(Cc2ccc(Cl)c(Cl)c2)c(=O)oc2cc(O)ccc12` [Compound M21], which “number of cells exhibiting DNA fragmentation (TUNEL)” value [8] is on record?
A: significantly reduced the number of cells exhibiting DNA fragmentation

Q: What about the “infarct volume (TTC)” value ([8]; 24 h) of the same compound?
A: significantly reduced infarct volume

Q: What about the “effect on agonist-induced Ca2+ changes” value [9] of the same compound?
A: no effect

Q: And the “effect on agonist-induced Ca2+ changes” value [10]?
A: no effect

Q: What about the survival after anoxia [11] of the same compound?
A: can promote survival

Q: What about the “effect on agonist-induced Ca2+ changes” value [12] of the same compound?
A: no effect

Q: And the “formalin-induced phase 1 (0-8 min) flinches” value [13]?
A: little effect

Q: And the “formalin-induced phase 2 pain (9-60 min) flinches” value [13]?
A: significantly reduced

Q: And the IC50 [14]?
A: 1000 to 2000 nM
